Experimental data: US7279550B2, “Irreversible cysteine protease inhibitors of legumain” (Probiodrug AG, priority 2001, dated 2007)

Legend:
legumain [1] = molecular target: T1, legumain (Homo sapiens, UniProt Q99538); experiment: Fluorogenic continuous rate assay of legumain activity, substrate Z-Ala-Ala-Asn-AMC (kobs/[I]); type: biochemical; conditions: for kobs/[l] (second-order rate constant for the inactivation of legumain): substrate Z-Ala-Ala-Asn-AMC, 37° C. or 30° C., sodium citrate buffer, 1 mM dithiothreitol, 1 mM EDTA, approximate second-order inactivation constants
T1 sequence (Q99538 18-323): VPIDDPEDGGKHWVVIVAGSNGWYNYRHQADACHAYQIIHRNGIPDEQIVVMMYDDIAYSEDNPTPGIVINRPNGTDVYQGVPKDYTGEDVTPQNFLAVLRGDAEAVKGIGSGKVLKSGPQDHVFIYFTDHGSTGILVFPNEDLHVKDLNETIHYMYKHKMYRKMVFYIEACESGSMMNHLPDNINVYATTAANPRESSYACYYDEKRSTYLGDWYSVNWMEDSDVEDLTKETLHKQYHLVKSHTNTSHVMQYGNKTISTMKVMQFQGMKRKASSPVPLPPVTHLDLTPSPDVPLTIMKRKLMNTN
Procedure: The legumain activity was determined in a fluorogenic continuos rate assay using the substrate Z-Ala-Ala-Asn-AMC on a Kontron spectrofluorometer SFM25 (exitation 380; emission 460) equipped with a four cell changer and controlled by an IBM-compatible personal computer. The obtained data were analyzed with the software FLUCOL^(38). The assay were done at 37° C. or 30° C., using a sodium citrate buffer (39.5 mM citric acid/121 mM Na2HPO4) containing 1 mM dithiothreitol and 1 mM EDTA. Additionally, 0.1% (w/v) Chaps or 0.015% (w/v) Brij 35 was added.
The inhibition progress curves were analyzed using non-linear curve fitting software Prism Graph Pad to compute the kobs values. Approximate second-order inactivation constants (kobs/[I]) were calculated for all compounds.

legumain [2] = molecular target: T1, legumain; experiment: Determination of Ki-values, legumain, substrate Z-Ala-Ala-Asn-AMC; type: biochemical; conditions: HEPES pH 7.6, 30° C.; substrate 0.05, 0.1, 0.2 and 0.4 mM
Procedure: 100 μl inhibitor stock solution were mixed with 100 μl buffer (HEPES pH 7.6) and 50 μl substrate Z-Ala-Ala-Asn-AMC and preincubated at 30° C. Reaction was started by addition of 20 μl enzyme solution. Formation of the product AMC was measured on a Kontron spectrofluorometer SFM25 (exitation 380; emission 460) and slopes were calculated. Legumain activity was measured at final substrate concentrations of 0.05, 0.1, 0.2, and 0.4 mM and further 7 inhibitor concentrations covering the IC50 concentration. Calculations were performed using the GraFit 4.0.13 (Erithacus) Software.

Compound | kobs/[l] (second-order rate constant for the inactivation of legumain) (legumain [1]) [M⁻¹ s⁻¹] | also measured
CC(NC(=O)OCc1ccccc1)C(=O)NC(C)C(=O)NN(CC(N)=O)C(=O)CCl [Compound 18, 2-[2-(Cbz-L-Ala-L-Ala)-1-(chloroacetyl)hydrazino]acetamide] | 139088 | second-order rate constant for the inactivation of legumain, fold higher than that of the Michael acceptor inhibitors (legumain [1]; compared with the Michael acceptor inhibitors): approximately 200 fold
CCOC(=O)/C=C/[C@H](CC(N)=O)NC(=O)[C@H](C)NC(=O)[C@H](C)NC(=O)OCc1ccccc1 [Compound 6, Ethyl (S)-(E)-4-[Cbz-L-Ala-L-Ala]amino-6-amino-6-oxo-2-hexenoate] | 456 | –
COC(=O)/C=C/[C@H](CC(N)=O)NC(=O)[C@H](C)NC(=O)[C@H](C)NC(=O)OCc1ccccc1 [Compound 5, Methyl (S)-(E)-4-[Cbz-L-Ala-L-Ala]amino-6-amino-6-oxo-2-hexenoate] | 543 | –
C[C@H](NC(=O)OCc1ccccc1)C(=O)N[C@@H](C)C(=O)NN(CC(N)=O)C(=O)COC(=O)c1ccccc1 [Compound 24, 2-[2-(Cbz-L-Ala-L-Ala)-1-(benzoyloxyacetyl)hydrazino]acetamide] | 13 | inhibition of legumain (in words) (legumain [1]): only moderate inhibition
C[C@H](NC(=O)OCc1ccccc1)C(=O)N[C@@H](C)C(=O)N[C@@H](CC(N)=O)C(=O)NOC(=O)c1ccccc1 [Compound 20, [Cbz-L-Ala-L-Ala-L-Asn]-O-benzoylhydroxamate] | – | Ki (legumain [2]): 3.1 µM
C/C(=C\[C@H](CC(N)=O)NC(=O)[C@H](C)NC(=O)[C@H](C)NC(=O)OCc1ccccc1)C(=O)O [Compound 11, (S)-(E)-4-[Cbz-L-Ala-L-Ala]amino-6-amino-2-methyl-6-oxo-2-hexenoic acid] | <1 | –
CC(NC(=O)OCc1ccccc1)C(=O)NC(C)C(=O)N[C@H](/C=C/C(=O)O)CC(N)=O (stereo partly drawn) [Compound 8, (S)-(E)-4-[Cbz-L-Ala-L-Ala]amino-6-amino-6-oxo-2-hexenoic acid] | 4 | –
C[C@H](NC(=O)OCc1ccccc1)C(=O)N[C@@H](C)C(=O)NN(CC(N)=O)C(=O)CBr [Compound 22, 2-[2-(Cbz-L-Ala-L-Ala)-1-(bromoacetyl)hydrazino]acetamide] | 84000 | inhibition of legumain (in words) (legumain [1]): potent inhibitor
CCOC(=O)/C(C)=C/[C@H](CC(N)=O)NC(=O)C(C)NC(=O)C(C)NC(=O)OCc1ccccc1 (stereo partly drawn) [Compound 10, Ethyl (S)-(E)-4-[Cbz-L-Ala-L-Ala]amino-6-amino-2-methyl-6-oxo-2-hexenoate] | 2 | –
Diethyl [(S)-(E)-3-[Cbz-L-Ala-L-Ala]amino-5-amino-5-oxo-1-petenylphosphate [Compound 13] | <1 | –
C=CCOC(=O)/C=C/[C@H](CC(N)=O)NC(=O)[C@H](C)NC(=O)[C@H](C)NC(=O)OCc1ccccc1 [Compound 7, Allyl (S)-(E)-4-[Cbz-L-Ala-L-Ala]amino-6-amino-6-oxo-2-hexenoate] | 776 | –
COC(=O)/C(C)=C/[C@H](CC(N)=O)NC(=O)C(C)NC(=O)C(C)NC(=O)OCc1ccccc1 (stereo partly drawn) [Compound 9, Methyl (S)-(E)-4-[Cbz-L-Ala-L-Ala]amino-6-amino-2-methyl-6-oxo-2-hexenoate] | 2 | –
Methyl [(S)-(E)-3-[Cbz-L-Ala-L-Ala]amino-5-amino-5-oxo-1-petene]-sulfonate [Compound 12] | 30 | –
